From patent US20260356856A1, “KRAS G12S AND G12C INHIBITORS” (MIRATI THERAPEUTICS, INC., priority 2023, published 2026)

How the values were obtained:
[1] = target: T1, KRas-mediated phosphorylation of ERK in A549 cells (Homo sapiens, UniProt P01116, G12S); test: Inhibition of KRas-mediated phosphorylation of ERK (HTRF), A549 cells; assay type: cell-based; conditions: HTRF pERK, 3 h incubation
T1 construct: pERK HTRF read-out

[2] = target: T2, KRas-mediated phosphorylation of ERK in MKN1 cells (Homo sapiens, UniProt P01116); test: Inhibition of KRas-mediated phosphorylation of ERK (HTRF), MKN1 cells; assay type: cell-based; conditions: MKN1 cells (KRas WT); HTRF pERK; 3 h incubation
T2 construct: pERK HTRF read-out
T2 sequence (P01116 1-188 isoform P01116-2): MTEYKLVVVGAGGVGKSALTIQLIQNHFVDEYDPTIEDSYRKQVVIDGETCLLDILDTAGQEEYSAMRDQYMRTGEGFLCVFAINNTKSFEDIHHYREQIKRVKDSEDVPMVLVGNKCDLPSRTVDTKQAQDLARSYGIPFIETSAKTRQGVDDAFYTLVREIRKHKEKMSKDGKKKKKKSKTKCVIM
Experimental: Inhibition of KRas Phosphorylation of ERK (HTRF) by Exemplary Compounds of Formula (Ia) or (Ib)
Cisbio HTRF Advanced pERK Assay Catalog #64AERPEH • Cells: MKN1, PSN1 • Procedure: • 1. Day 1: Seed 6,000 cells/well −25 μl/well in 384-well white solid bottom plate; RPM1_10% FBS. Incubate overnight at 37 °C/5% CO2. • 2.

KRas WT = target: T3, KRas WT (Homo sapiens, UniProt P01116); test: KRas binding assay, TR-FRET displacement of Cy5 labelled tracer; conditions: 60-minute incubation at room temperature, 1% DMSO, pH 7.5
T3 construct: Biotinylated KRas (corresponding to amino acids 1-169, produced at Accelegan Inc.); biotin (biotinylated); purchased Accelegan Inc
T3 sequence (P01116 1-169 isoform P01116-2): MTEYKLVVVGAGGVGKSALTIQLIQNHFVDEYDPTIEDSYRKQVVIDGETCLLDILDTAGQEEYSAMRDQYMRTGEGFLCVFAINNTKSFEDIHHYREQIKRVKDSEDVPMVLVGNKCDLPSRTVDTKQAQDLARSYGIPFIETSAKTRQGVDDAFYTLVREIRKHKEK
In short: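 Room-temperature incubation (60 min) of compound with biotinylated KRas 1-169, tracer and Tb-streptavidin preceded the TR-FRET read. Final DMSO was 1%; buffer pH 7.5. Percent-of-control values went into a 4-parameter equation to give IC50.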

KRas G12C = target: T4, KRas G12C (Homo sapiens, UniProt P01116, G12C); test: as above; conditions: 60-minute incubation at room temperature, 1% DMSO, pH 7.5
T4 construct: Biotinylated KRas (corresponding to amino acids 1-169, produced at Accelegan Inc.); biotin (biotinylated); purchased Accelegan Inc
T4 sequence (P01116 1-169 isoform P01116-2 G12C): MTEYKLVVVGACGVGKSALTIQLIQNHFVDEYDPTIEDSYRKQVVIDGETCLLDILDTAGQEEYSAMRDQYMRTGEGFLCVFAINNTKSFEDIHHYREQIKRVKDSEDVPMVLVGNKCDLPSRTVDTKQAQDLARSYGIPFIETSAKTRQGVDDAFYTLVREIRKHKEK
In short: (§1)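 Tb-streptavidin captured biotinylated KRas (1-169) in HEPES 50 mM, DTT 1 mM, MgCl2 5 mM, Tween-20 0.005% (pH 7.5), alongside tracer and compound at 1% final DMSO. One hour at RT, then read; IC50 from 4-parameter POC fit.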

KRas G12S = target: T5, KRas G12S (Homo sapiens, UniProt P01116, G12S); test: as above; conditions: 60-minute incubation at room temperature, 1% DMSO, pH 7.5
T5 construct: Biotinylated KRas (corresponding to amino acids 1-169, produced at Accelegan Inc.); biotin (biotinylated); purchased Accelegan Inc
T5 sequence (P01116 1-169 isoform P01116-2 G12S): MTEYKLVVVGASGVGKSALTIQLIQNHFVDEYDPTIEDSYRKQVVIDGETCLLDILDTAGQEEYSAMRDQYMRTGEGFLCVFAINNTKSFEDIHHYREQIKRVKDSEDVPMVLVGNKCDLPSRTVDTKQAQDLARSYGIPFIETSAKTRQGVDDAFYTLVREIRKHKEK
In short: as §1

[3] = target: T6, KRas-mediated phosphorylation of ERK in H358 cells (Homo sapiens, UniProt P01116, G12C); test: Inhibition of KRas-mediated phosphorylation of ERK (HTRF), H358 cells; assay type: cell-based; conditions: HTRF pERK, 3 h incubation
T6 construct: pERK HTRF read-out
T6 sequence (P01116 1-188 isoform P01116-2 G12C): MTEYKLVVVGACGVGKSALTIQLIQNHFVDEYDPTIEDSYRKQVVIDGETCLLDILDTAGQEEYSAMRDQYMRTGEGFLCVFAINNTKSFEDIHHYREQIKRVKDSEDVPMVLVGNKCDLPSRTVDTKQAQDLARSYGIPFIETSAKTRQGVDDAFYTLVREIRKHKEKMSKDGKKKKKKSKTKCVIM

T1 sequence (P01116 1-188 isoform P01116-2 G12S): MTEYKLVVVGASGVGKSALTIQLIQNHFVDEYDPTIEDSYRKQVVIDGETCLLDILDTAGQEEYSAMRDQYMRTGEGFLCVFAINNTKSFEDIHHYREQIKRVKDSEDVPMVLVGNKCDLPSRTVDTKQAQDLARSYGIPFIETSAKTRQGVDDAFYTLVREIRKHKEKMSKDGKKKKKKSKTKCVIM

| Compound | IC50 [1] [nM] | IC50 [2] [nM] | IC50 (KRas WT) [nM] | IC50 (KRas G12C) [nM] | IC50 (KRas G12S) [nM] | IC50 [3] [nM] |
| --- | --- | --- | --- | --- | --- | --- |
| CN(C(=O)C1CCN(c2nc(OC[C@@]34CCCN3C[C@H](F)C4)nc3c(F)c(-c4ccc(F)c5sc(N)c(C#N)c45)c(Cl)cc23)CC1)c1cccnc1 [Example 289, 1-(7-(2-amino-3-cyano-7-fluorobenzo[b]thiophen-4-yl)-6-chloro-8-fluoro-2-(((2R,7aS)-2-fluorotetrahydro-1H-pyrrolizin-7a(5H)-yl)methoxy)quinazolin-4-yl)-N-methyl-N-(pyridin-3-yl)piperidine-4-carboxamide] | 271 | 33 | 5 | 10 | 18 | 81 |
| CN(C(=O)C1CCN(c2nc(OC[C@@]34CCCN3C[C@H](F)C4)nc3c(F)c(-c4ccc(F)c5sc(N)c(C#N)c45)c(Cl)cc23)CC1)c1ccncn1 [Example 290, 1-(7-(2-amino-3-cyano-7-fluorobenzo[b]thiophen-4-yl)-6-chloro-8-fluoro-2-(((2R,7aS)-2-fluorotetrahydro-1H-pyrrolizin-7a(5H)-yl)methoxy)quinazolin-4-yl)-N-methyl-N-(pyrimidin-4-yl)piperidine-4-carboxamide] | 142 | 18 | 10 | 9 | 13 | 29 |
| CCN(C(C)=O)C(=O)CCCN(C)c1nc(OC[C@@]23CCCN2C[C@H](F)C3)nc2c(F)c(-c3ccc(F)c4sc(N)c(C#N)c34)c(Cl)cc12 [Example 291, N-acetyl-4-((7-(2-amino-3-cyano-7-fluorobenzo[b]thiophen-4-yl)-6-chloro-8-fluoro-2-(((2R,7aS)-2-fluorotetrahydro-1H-pyrrolizin-7a(5H)-yl)methoxy)quinazolin-4-yl)(methyl)amino)-N-ethylbutanamide] | 65 | 134 | 12 | 6 | 7 | 81 |
| CN(C(=O)CCCN(C)c1nc(OC[C@@]23CCCN2C[C@H](F)C3)nc2c(F)c(-c3ccc(F)c4sc(N)c(C#N)c34)c(Cl)cc12)C(=O)c1ccn(C)n1 [Example 292, N-(4-((7-(2-amino-3-cyano-7-fluorobenzo[b]thiophen-4-yl)-6-chloro-8-fluoro-2-(((2R,7aS)-2-fluorotetrahydro-1H-pyrrolizin-7a(5H)-yl)methoxy)quinazolin-4-yl)(methyl)amino)butanoyl)-N, 1-dimethyl-1H-pyrazole-3-carboxamide] | 27 | 80 | 11 | 3 | 5 | 30 |
| CCc1c(F)ccc2cc(O)cc(-c3ncc4c(N5CCC(C(=O)n6cc(OC)cn6)CC5)nc(OC[C@@]56CCCN5C[C@H](F)C6)nc4c3F)c12 [Example 294, (1-(7-(8-ethyl-7-fluoro-3-hydroxynaphthalen-1-yl)-8-fluoro-2-(((2R,7aS)-2-fluorotetrahydro-1H-pyrrolizin-7a(5H)-yl)methoxy)pyrido[4,3-d]pyrimidin-4-yl)piperidin-4-yl)(4-methoxy-1H-pyrazol-1-yl)methanone] | 74 | 3870 | 130 | 61 | 22 | 4490 |
| N#Cc1c(N)sc2c(F)ccc(-c3c(C(F)(F)F)cc4c(N5CCC(C(=O)Oc6ccccc6)CC5)nc(OC[C@@]56CCCN5C[C@H](F)C6)nc4c3F)c12 [Example 295, phenyl 1-(7-(2-amino-3-cyano-7-fluorobenzo[b]thiophen-4-yl)-8-fluoro-2-(((2R,7aS)-2-fluorotetrahydro-1H-pyrrolizin-7a(5H)-yl)methoxy)-6-(trifluoromethyl)quinazolin-4-yl)piperidine-4-carboxylate] | 14 | 56 | 44 | 11 | 12 | 5 |
| N#Cc1c(N)sc2c(F)ccc(-c3c(Cl)cc4c(N5CCC(C(=O)Oc6cccnc6)CC5)nc(OC[C@@]56CCCN5C[C@H](F)C6)nc4c3F)c12 [Example 296, pyridin-3-yl 1-(7-(2-amino-3-cyano-7-fluorobenzo[b]thiophen-4-yl)-6-chloro-8-fluoro-2-(((2R,7aS)-2-fluorotetrahydro-1H-pyrrolizin-7a(5H)-yl)methoxy)quinazolin-4-yl)piperidine-4-carboxylate] | 16 | 318 | 30 | 3 | 3 | 15 |
| N#Cc1c(N)sc2c(F)ccc(-c3c(Cl)cc4c(N5CCC(C(=O)Oc6cccc(Cl)c6)CC5)nc(OC[C@@]56CCCN5C[C@H](F)C6)nc4c3F)c12 [Example 297, 3-chlorophenyl 1-(7-(2-amino-3-cyano-7-fluorobenzo[b]thiophen-4-yl)-6-chloro-8-fluoro-2-(((2R,7aS)-2-fluorotetrahydro-1H-pyrrolizin-7a(5H)-yl)methoxy)quinazolin-4-yl)piperidine-4-carboxylate] | 101 | 299 | 99 | 23 | 45 | 32 |
| N#Cc1c(N)sc2c(F)ccc(-c3c(Cl)cc4c(N5CCC(C(=O)Oc6ccccc6Cl)CC5)nc(OC[C@@]56CCCN5C[C@H](F)C6)nc4c3F)c12 [Example 298, 2-chlorophenyl 1-(7-(2-amino-3-cyano-7-fluorobenzo[b]thiophen-4-yl)-6-chloro-8-fluoro-2-(((2R,7aS)-2-fluorotetrahydro-1H-pyrrolizin-7a(5H)-yl)methoxy)quinazolin-4-yl)piperidine-4-carboxylate] | 169 | 217 | 154 | 17 | 80 | 16 |
| N#Cc1c(N)sc2c(F)ccc(-c3c(Cl)cc4c(N5CCC(C(=O)Oc6ccc(F)cc6)CC5)nc(OC[C@@]56CCCN5C[C@H](F)C6)nc4c3F)c12 [Example 299, 4-fluorophenyl 1-(7-(2-amino-3-cyano-7-fluorobenzo[b]thiophen-4-yl)-6-chloro-8-fluoro-2-(((2R,7aS)-2-fluorotetrahydro-1H-pyrrolizin-7a(5H)-yl)methoxy)quinazolin-4-yl)piperidine-4-carboxylate] | 93 | 323 | 178 | 9 | 22 | 12 |
| COc1ccccc1OC(=O)C1CCN(c2nc(OC[C@@]34CCCN3C[C@H](F)C4)nc3c(F)c(-c4ccc(F)c5sc(N)c(C#N)c45)c(Cl)cc23)CC1 [Example 300, 2-methoxyphenyl 1-(7-(2-amino-3-cyano-7-fluorobenzo[b]thiophen-4-yl)-6-chloro-8-fluoro-2-(((2R,7aS)-2-fluorotetrahydro-1H-pyrrolizin-7a(5H)-yl)methoxy)quinazolin-4-yl)piperidine-4-carboxylate] | 115 | 408 | 163 | 9 | 85 | 9 |
| N#Cc1c(N)sc2c(F)ccc(-c3c(Cl)cc4c(N5CCC(C(=O)Oc6ccc(Cl)cc6)CC5)nc(OC[C@@]56CCCN5C[C@H](F)C6)nc4c3F)c12 [Example 301, 4-chlorophenyl 1-(7-(2-amino-3-cyano-7-fluorobenzo[b]thiophen-4-yl)-6-chloro-8-fluoro-2-(((2R,7aS)-2-fluorotetrahydro-1H-pyrrolizin-7a(5H)-yl)methoxy)quinazolin-4-yl)piperidine-4-carboxylate] | 113 | 264 | 142 | 16 | 43 | 20 |
| N#Cc1c(N)sc2c(F)ccc(-c3c(Cl)cc4c(N5CCC(C(=O)Oc6cccc(F)c6)CC5)nc(OC[C@@]56CCCN5C[C@H](F)C6)nc4c3F)c12 [Example 302, 3-fluorophenyl 1-(7-(2-amino-3-cyano-7-fluorobenzo[b]thiophen-4-yl)-6-chloro-8-fluoro-2-(((2R,7aS)-2-fluorotetrahydro-1H-pyrrolizin-7a(5H)-yl)methoxy)quinazolin-4-yl)piperidine-4-carboxylate] | 79 | 286 | 164 | 12 | 25 | 18 |
| CN1CC2(CCN(c3nc(OC[C@@]45CCCN4C[C@H](F)C5)nc4c(F)c(-c5ccc(F)c6sc(N)c(C#N)c56)c(Cl)cc34)CC2)C1=O [Example 303, 2-amino-4-(6-chloro-8-fluoro-2-(((2R,7aS)-2-fluorotetrahydro-1H-pyrrolizin-7a(5H)-yl)methoxy)-4-(2-methyl-1-oxo-2,7-diazaspiro[3.5]nonan-7-yl)quinazolin-7-yl)-7-fluorobenzo[b]thiophene-3-carbonitrile] | 59 | 4 | 4 | 3 | 3 | 14 |
